Experimental data reported in paper PMC11808726, “Identification of ABHD6 as a lysophosphatidylserine lipase in the mammalian liver and kidneys” (The Journal of Biological Chemistry, 2025).
pIC50: −log10 of the molar value.

Molecular target: T1, ABHD6 (Mus musculus, UniProt Q8R2Y0)
T1 construct: full-length mouse ABHD6, pcDNA3.1 myc-His, overexpressed in HEK293T (membrane fraction)
T1 sequence (Q8R2Y0 1-336): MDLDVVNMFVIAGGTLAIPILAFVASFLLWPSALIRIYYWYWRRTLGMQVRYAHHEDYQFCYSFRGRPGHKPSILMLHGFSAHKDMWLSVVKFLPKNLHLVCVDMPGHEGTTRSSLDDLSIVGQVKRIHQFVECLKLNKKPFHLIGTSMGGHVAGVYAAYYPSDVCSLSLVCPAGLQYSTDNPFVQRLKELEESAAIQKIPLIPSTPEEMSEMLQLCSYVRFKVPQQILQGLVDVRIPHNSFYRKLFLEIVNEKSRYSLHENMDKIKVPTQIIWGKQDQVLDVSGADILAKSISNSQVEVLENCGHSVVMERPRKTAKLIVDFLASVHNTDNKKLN
Test: competitive gel-based ABPP dose response with FP-rhodamine; lyso-PS lipase LC-MS assay; in vivo ABPP
Assay type: biochemical

Question: With O=C(c1cccc(-c2ccc(-c3cn(C(=O)N4CCCCC4c4ccccc4)nn3)cc2)c1)N1CCCCC1 (stereo not shown) [KT185] as the compound, how does the pIC50 read?
Answer: > 8.00
